Molecules are shown by their SMILES. pIC50: −log10 of the molar value.

Sequence of human 11β-HSD1 (P28845 whole entry): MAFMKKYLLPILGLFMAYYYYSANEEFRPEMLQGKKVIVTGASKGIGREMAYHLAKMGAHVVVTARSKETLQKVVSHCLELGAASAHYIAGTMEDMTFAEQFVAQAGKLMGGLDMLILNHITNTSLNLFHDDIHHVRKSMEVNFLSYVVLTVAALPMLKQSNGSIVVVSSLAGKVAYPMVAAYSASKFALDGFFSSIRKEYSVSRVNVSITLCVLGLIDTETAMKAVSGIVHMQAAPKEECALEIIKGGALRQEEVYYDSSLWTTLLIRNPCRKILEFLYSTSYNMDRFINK

The target of this assay is human 11β-HSD1 (Homo sapiens, UniProt P28845). Nature of the assay: Inhibition of a microsomal preparation of 11β-HSD1, SPA (Biological Test Example 2). The class given is biochemical. Details: expressed in transfected cells; host or cells: CHO cells (microsomes). The conditions noted are these: read-out: Biological Test Example 2 (IC50 class). The method, then:
All reactions are carried out at room temperature in 96 well clear flexible PET Microbeta plates (PerkinElmer). […] After a 10 minute pre-incubation, 50 μL of enzyme solution containing microsomes isolated from CHO cells overexpressing human 11β-HSD1 (10-20 μg/ml of total protein) is added, and the plates are then incubated for 90 minutes at room temperature. The reaction is stopped by adding 50 μl of the SPA beads suspension containing […] 18β-glycyrrhetinic acid, 5 mg/ml protein A coated YSi SPA beads (GE Healthcare) and 3.3 μg/ml of anti-cortisol antibody (East Coast Biologics) in Superblock buffer (Bio-Rad). The plates are then shaken for 120 minutes at room temperature, and the SPA signal corresponding to [^3H]cortisol is measured on a Microbeta plate reader.
As for `CCOC(=O)N1Cc2ccccc2C2(CCN(C(=O)NC3C4CC5CC(C4)CC3C5)CC2)C1` (stereo not drawn) [Example 36, Ethyl 1′-((2-adamantyl)carbamoyl)-1H-spiro[isoquinoline-4,4′-piperidine]-2(3H)-carboxylate], the negative-log IC50 (pIC50) (commonly the negative decadic logarithm of the IC50, by convention in mol/L) is greater than 7.30.
In the case of `O=C(NC1C2CC3CC(C2)CC1C3)N1CCCC2(Cc3ccccc3C2O)C1` (stereo not drawn) [27, Step 2 Product] it was greater than 7.30.
As to `O=C(O)CC1CCC2(CC1)CCN(C(=O)OC1C3CC4CC(C3)CC1C4)CC2` (stereo not drawn) [Example 80, 2-(3-((2-Adamantyl)oxycarbonyl)-3-azaspiro[5.5]undecan-9-yl)acetic acid], the pIC50 was 6.00 to 7.30.
In the case of `CC(C)(CC(=O)O)CC(=O)N1Cc2ccccc2C2(CCN(C(=O)NC3C4CC5CC(C4)CC3C5)CC2)C1` (stereo not drawn) [Example 98, 5-(1′-(2-Adamantylcarbamoyl)-1H-spiro[isoquinoline-4,4′-piperidine]-2(3H)-yl)-3,3-dimethyl-5-oxopentanoic acid], the pIC50 is 6.00 to 7.30.
For the compound `CC(C)(C)OC(=O)N1CC2(CCN(C(=O)OC3C4CC5CC3CC(C(N)=O)(C5)C4)CC2)c2ccccc21` (stereo not drawn) [Example 85, 1-Tert-butyl 1′-(trans-1-carbamoyl-4-adamantyl)spiro[indoline-3,4′-piperidine]-1,1′-dicarboxylate], the pIC50 is greater than 7.30.
With `CC(C)(CC(=O)O)CC(=O)N1CC2(CCN(C(=O)NC3C4CC5CC(C4)CC3C5)CC2)c2ccccc21` (stereo not drawn) [Example 96, 5-(1′-(2-Adamantylcarbamoyl)spiro[indoline-3,4′-piperidine]-1-yl)-3,3-dim ethyl-5-oxopentanoic acid], the pIC50 is greater than 7.30.
Take `NCC1CC2(CCN(C(=O)OC3C4CC5CC(C4)CC3C5)CC2)c2c(Br)cccc21` (racemic) [Example 124, (±)-2-Adamantyl 3-(aminomethyl)-7-bromo-2,3-dihydrospiro[indene-1,4′-piperidine]-1′-carboxylate]: the pIC50 is greater than 7.30.
Regarding `O=C(OC1C2CC3CC(C2)CC1C3)N1CCC2(CC1)CNCc1ccccc12` (stereo not drawn) [Example 38, 2-Adamantyl 2,3-dihydro-1H-spiro[isoquinoline-4,4′-piperidine]-1′-carboxylate], the pIC50 was greater than 7.30.
For `O=C(O)/C=C/C(=O)N1Cc2ccccc2C2(CCN(C(=O)NC3C4CC5CC(C4)CC3C5)CC2)C1` (stereo not drawn) [Example 91, (E)-4-(1′-(2-Adamantylcarbamoyl)-1H-spiro[isoquinoline-4,4′-piperidine]-2(3H)-yl)-4-oxobut-2-enoic acid], the pIC50 was greater than 7.30.
As to `CN1CCN(CCNC(=O)CC2CC3(CCN(C(=O)NC4C5CC6CC(C5)CC4C6)CC3)c3c(Br)cccc32)CC1` (stereo not drawn) [Example 121, 7-Bromo-N-(2-adamantyl)-3-(2-(2-(4-methylpiperazin-1-yl)ethylamino)-2-oxoethyl)-2,3-dihydrospiro[indene-1,4′-piperidine]-1′-carboxamide], the pIC50 is greater than 7.30.
In the case of `CCOC(=O)CCN1Cc2ccccc2C2(CCN(C(=O)OC3C4CC5CC(C4)CC3C5)CC2)C1` (stereo not drawn) [Example 32] it was greater than 7.30.
In the case of `CN1C(=S)c2ccccc2C12CCN(C(=O)NC1C3CC4CC(C3)CC1C4)CC2` (stereo not drawn) [103, Step 1 Product] it was greater than 7.30; in that of `CCOC(=O)CC1CC2(CCN(C(=O)NC3C4CC5CC(C4)CC3C5)CC2)c2c(C)cccc21` (racemic) [Example 47, (±)-Ethyl 2-(1′-((2-adamantyl)carbamoyl)-7-methyl-2,3-dihydrospiro[indene-1,4′-piperidine]-3-yl)acetate], greater than 7.30; in that of `Cc1ccc2c(c1)C(CC(=O)O)CC21CCN(C(=O)OC2C3CC4CC(C3)CC2C4)CC1` (racemic) [Example 65, (±)-2-(5-Methyl-1′-((2-adamantyloxy)carbonyl)-2,3-dihydrospiro[indene-1,4′-piperidine]-3-yl)acetic acid], greater than 7.30.
For `O=C(O)CC1CC2(CCN(C(=O)NC3C4CC5CC(C4)CC3C5)CC2)c2ccc(Cl)cc21` (racemic) [Example 56, (±)-2-(1′-((2-Adamantyl)carbamoyl)-5-chloro-2,3-dihydrospiro[indene-1,4′-piperidine]-3-yl)acetic acid], the pIC50 was greater than 7.30.
As to `CN1CCN(C(=O)CC2CC3(CCN(C(=O)NC4C5CC6CC(C5)CC4C6)CC3)c3c(Br)cccc32)CC1` (stereo not drawn) [Example 112, 7-Bromo-N-(2-adamantyl)-3-(2-(4-methylpiperazin-1-yl)-2-oxoethyl)-2,3-dihydrospiro[indene-1,4′-piperidine]-1′-carboxamide], the pIC50 was greater than 7.30.
Turning to `O=C(O)CC1CC2(CCN(C(=O)OC3C4CC5CC(C4)CC3C5)CC2)c2c(Br)cccc21` (racemic) [Example 63, (±)-2-(7-Bromo-1′-((2-adamantyloxy)carbonyl)-2,3-dihydrospiro[indene-1,4′-piperidine]-3-yl)acetic acid], the pIC50 is greater than 7.30.
In the case of `CN(C)CC1CC2(CCN(C(=O)OC3C4CC5CC(C4)CC3C5)CC2)c2c(Br)cccc21` (racemic) [Example 125, (±)-2-Adamantyl 7-bromo-3-((dimethylamino)methyl)-2,3-dihydro spiro[indene-1,4′-piperidine]-1′-carboxylate] it was greater than 7.30; in that of `CC(C)(CO)C1CC2(CCN(C(=O)NC3C4CC5CC(C4)CC3C5)CC2)c2c(Br)cccc21` (racemic) [Example 123, (±)-7-Bromo-N-(2-adamantyl)-3-(1-hydroxy-2-methylpropan-2-yl)-2,3-dihydrospiro[indene-1,4′-piperidine]-1′-carboxamide], greater than 7.30; in that of `O=C(O)CC1CCC2(CC1)CCN(C(=O)NC1C3CC4CC(C3)CC1C4)CC2` (stereo not drawn) [Example 82, 2-(3-((2-Adamantyl)carbamoyl)-3-azaspiro[5.5]undecan-9-yl)acetic acid], 6.00 to 7.30.
For the compound `CC(C)(CC(=O)N1Cc2ccccc2C2(CCN(C(=O)NC3C4CC5CC(C4)CC3C5)CC2)C1)C(=O)O` (stereo not drawn) [Example 97, 4-(1′-(2-Adamantylcarbamoyl)-1H-spiro[isoquinoline-4,4′-piperidine]-2(3H)-yl)-2,2-dimethyl-4-oxobutanoic acid], the pIC50 is greater than 7.30.
On to `O=C(NC1C2CC3CC(C2)CC1C3)N1CCC2(CC1)NCc1ccccc12` (stereo not drawn) [Example 87, N-(2-Adamantyl)spiro[isoindoline-1,4′-piperidine]-1′-carboxamide], for which the pIC50 was greater than 7.30.
Under `CNC(=O)N1Cc2ccccc2C2(CCN(C(=O)NC3C4CC5CC(C4)CC3C5)CC2)C1` (stereo not drawn) [Example 35, N1′-(2-Adamantyl)-N2-methyl-1H-spiro[isoquinoline-4,4′-piperidine]-1′,2(3H)-dicarboxamide] stands greater than 7.30.
`CS(=O)(=O)N1Cc2ccccc2C2(CCN(C(=O)NC3C4CC5CC(C4)CC3C5)CC2)C1` (stereo not drawn) [Example 34, N-(2-Adamantyl)-2-(methylsulfonyl)-2,3-dihydro-1H-spiro[isoquinoline-4,4′-piperidine]-1′-carboxamide]: the pIC50 was greater than 7.30.
For `O=C(O)CCC(=O)N1CC2(CCN(C(=O)NC3C4CC5CC(C4)CC3C5)CC2)c2ccccc21` (stereo not drawn) [Example 90, 4-(1′-(2-Adamantylcarbamoyl)spiro[indoline-3,4′-piperidine]-1-yl)-4-oxobutanoic acid], the pIC50 is greater than 7.30.
For `CCOC(=O)CC1CC2(CCN(C(=O)NC3C4CC5CC(C4)CC3C5)CC2)c2c(Cl)cccc21` (racemic) [Example 51, (±)-Ethyl 2-(1′-((2-adamantyl)carbamoyl)-7-chloro-2,3-dihydrospiro[indene-1,4′-piperidine]-3-yl)acetate], the pIC50 is greater than 7.30.
Under `O=C(O)CC1CC2(CCN(C(=O)NC3C4CC5CC(C4)CC3C5)CC2)c2cc(Cl)ccc21` (racemic) [Example 54, (±)-2-(1′-((2-Adamantyl)carbamoyl)-6-chloro-2,3-dihydrospiro[indene-1,4′-piperidin]-3-yl)acetic acid] stands greater than 7.30; under `O=C(NC1C2CC3CC(C2)CC1C3)N1CCC2(CC1)CC(CCO)c1cccc(Br)c12` (racemic) [Example 122, (±)-7-Bromo-N-(2-adamantyl)-3-(2-hydroxyethyl)-2,3-dihydrospiro[indene-1,4′-piperidine]-1′-carboxamide], greater than 7.30.
In the case of `COC(=O)CC1CCC2(CC1)CCN(C(=O)NC1C3CC4CC(C3)CC1C4)CC2` (stereo not drawn) [Example 81, Methyl 2-(3-((2-adamantyl)carbamoyl)-3-azaspiro[5.5]undecan-9-yl)acetate] it was greater than 7.30.
In the case of `CN1C(C)(C)c2ccccc2C12CCN(C(=O)NC1C3CC4CC(C3)CC1C4)CC2` (stereo not drawn) [Example 103, N-(2-Adamantyl)-2,3,3-trimethylspiro[isoindoline-1,4′-piperidine]-1′-carboxamide] it was greater than 7.30; in that of `O=C(O)CC1CC2(CCN(C(=O)NC34CC5CC(CC(C5)C3)C4)CC2)c2c(Br)cccc21` (racemic) [Example 62, (±)-2-(7-Bromo-1′-((1-adamantyl)carbamoyl)-2,3-dihydrospiro[indene-1,4′-piperidine]-3-yl)acetic acid], greater than 7.30; in that of `CCOC(=O)C(C)(C)C1CC2(CCN(C(=O)NC3C4CC5CC(C4)CC3C5)CC2)c2c(Br)cccc21` (racemic) [Example 67, (±)-Ethyl 2-(7-bromo-1′-((2-adamantyl)carbamoyl)-2,3-dihydrospiro[indene-1,4′-piperidine]-3-yl)-2-methylpropanoate], greater than 7.30.
`O=C(O)C1CC1C(=O)N1Cc2ccccc2C2(CCN(C(=O)NC3C4CC5CC(C4)CC3C5)CC2)C1` [Example 99, (1S,2R)-2-(1′42-Adamantylcarbamoyl)-2,3-dihydro-1H-spiro[isoquinoline-4,4′-piperidine]-2-ylcarbonyl)cyclopropanecaxboxylic acid]: the pIC50 is 6.00 to 7.30.
